# Reference: US9783488B2 (CHDI Foundation, Inc., priority 2013, dated 2017)
# Columns and labels:
# [1] = target: human catalytic domain HDAC4 protein (amino acids 648-1032) (Homo sapiens (Human), UniProt P56524); experiment: Inhibition of HDAC4 catalytic domain enzymatic activity, fluorogenic substrate Boc-Lys(Tfa)-AMC; details: HDAC4 catalytic domain enzyme, read-out: Biochemical HDAC4 IC50
# Text: Analysis of Inhibition of HDAC4 with Class IIa Histone Deacetylase (HDAC) Inhibitors
# The potency of Class IIa Histone Deacetylase (HDAC) inhibitors is quantified by measuring the Histone Deacetylase 4 (HDAC4) catalytic domain enzymatic activity using the fluorogenic substrate, Boc-Lys(Tfa)-AMC. The substrate is deacetylated to Boc-Lys-AMC by HDAC4. Cleavage by trypsin results in the release of the fluorophore AMC from the deacetylated substrate. The fluorescence of the sample is directly related to the histone deacetylase activity in the sample.
# Serially dilute HDAC inhibitor compounds. […] Stocks of 6 μl aliquots of the 10 mM compound in DMSO are prepared and stored at […]. From one stock aliquot of each compound to be tested and the reference compound, a 16-point serial dilution is prepared according to Table 1 using a 125 μl 16-channel Matrix multi-channel pipette (Matrix Technologies Ltd).
# 2 μl (200×) of each diluted solution and each control (full activity: 100% DMSO alone or full inhibition 1 mM) is stamped into V-bottomed polypropylene 384-well compound plates using either the Bravo (384-well head from Agilent) or 12.5 μl 16-channel Matrix multi-channel pipette (Matrix Technologies Ltd).
# Prepare HDAC4 catalytic domain enzyme (0.2 μg/mL).
# Prepare 5× ([…]) Boc-Lys(Tfa)-AMC Substrate. 5× (50 μM) substrate is prepared just prior to the addition to the assay. A 1 mM substrate stock is made by diluting a 100 mM Boc-Lys(Tfa)-AMC in DMSO solution 1:100 by adding it drop-wise to assay buffer (equilibrated to r.t.) while vortexing at slow speed to prevent precipitation. The 5× substrate is prepared by diluting the 1 mM substrate solution 1:20 by adding it drop-wise to assay buffer (equilibrated to r.t.) while vortexing at slow speed to prevent precipitation.
# Prepare 3× (30 μM) Developer/Stop Solution.
# Assay. 5 μl of each solution of 1:20 diluted compound from above is transferred to a clear bottomed, black, 384-well assay plate using the Bravo or the Janus (384-well MDT head from Perkin Elmer). Using a 16-channel Matrix multi-channel pipette, 35 μl of the working solution of HDAC4 catalytic domain enzyme (0.2 μg/mL in assay buffer) is transferred to the assay plate. […] The assay plate is then shaken for two minutes on an orbital shaker at 900 rpm (rotations per minute). Next the plate is incubated for 15 minutes at 37° C. The reaction is stopped by adding 25 μl of 3× (3 μM) developer/stop solution to the assay plates using either the Bravo, Janus or a 16-channel Matrix multi-channel pipette. Assay plates are then shaken for 5 minutes on an orbital shaker at 1200 rpm. Next, the assay plates are incubated at 37° C. for 1 hour in a tissue culture incubator.
# [2] = tested on: cellular histone deacetylase enzymatic activity in Jurkat E6-1 cells; experiment: Inhibition of cellular HDAC activity in Jurkat E6-1 cells, fluorogenic substrate Boc-Lys(Tfa)-AMC; type: cell-based; details: Homo sapiens, read-out: Cell IC50
# Text: Analysis of Inhibition of Cellular HDAC Activity with Class IIa Histone Deacetylase (HDAC) Inhibitors
# The potency of Class IIa Histone Deacetylase (HDAC) inhibitors is quantified by measuring the cellular histone deacetylase enzymatic activity using the fluorogenic substrate, Boc-Lys(Tfa)-AMC. After penetration in Jurkat E6-1 cells, the substrate is deacetylated to Boc-Lys-AMC. After cell lysis and cleavage by trypsin, the fluorophore AMC is released from the deacetylated substrate only. The fluorescence of the sample is directly related to the histone deacetylase activity in the sample.
# Jurkat E6.1 cell culture and plating. Jurkat E6.1 cells are cultured according to standard cell culture protocols in Jurkat E6.1 Growth Media (RPMI without phenol red, 10% FBS, 1 mM HEPES, and 1 mM Sodium Pyruvate). Jurkat E6.1 cells are counted using a Coulter Counter and resuspended in Jurkat E6.1 growth media at a concentration of 75,000 cells/35 μl. 35 μl or 75,000 cells is seeded into Greiner microtitre assay plates. The plates are then incubated at 37° C. and 5% CO2 while other assay components are being prepared.
# Serially dilute HDAC inhibitor compounds. Serial dilutions of the HDAC inhibitors and control reference compound (1-(5-(3-((4-(1,3,4-oxadiazol-2-yl)phenoxy)methyl)-1,2,4-oxadiazol-5-yl)thiophen-2-yl)-2,2,2-trifluoroethanone) are made by first resuspending the lyophilized compound to a final concentration of 10 mM in […]. Stocks of 70 μl aliquots of the 10 mM compound in DMSO are prepared and stored at −20° C. From one stock aliquot of each compound to be tested and the reference compound, a 16-point serial dilution is prepared according to Table 1 using a 125 μl 16-channel Matrix multi-channel pipette.
# 2 μl (200×) of each diluted solution and each control (full activity: 100% DMSO alone or full inhibition 1 mM) is stamped into V-bottom polypropylene 384-well compound plates using either the Bravo, Janus, or 12.5 μl 16-channel Matrix multi-channel pipette. Each well with the 200× compound solution is diluted 1:20 by the addition of 38 μl Jurkat assay buffer+DMSO (9.5% DMSO, RPMI without phenol red, 0.09% FBS, 9 mM Hepes, and 0.9 mM Sodium Pyruvate equilibrated to r.t.)
# Prepare 5× (500 μM) Boc-Lys(Tfa)-AMC substrate. 5× (500 μM) substrate is prepared just prior to the addition to the assay. The 5× substrate is prepared by diluting a 100 mM Boc-Lys(Tfa)-AMC in DMSO solution 1:200 by adding it drop-wise to Jurkat assay medium (RPMI without phenol red, 0.1% FBS, 10 mM Hepes, and 1 mM Sodium Pyruvate equilibrated to 37° C.) while vortexing at slow speed to prevent precipitation.
# Prepare 3× Lysis Buffer. 10 mL of 3× lysis buffer is prepared with 8.8 mL of 3× stock lysis buffer (50 mM Tris-HCl, pH 8.0, 137 mM NaCl, 2.7 mM KCl, 1 mM MgCl2, 1% Nonidet P40 Substitute equilibrated to r.t.) and 1.2 mL of 3 mg/mL Trypsin equilibrated to r.t.
# Assay. 5 μl of each solution of 1:20 diluted compound from above is transferred to the Greiner microtitre assay plates with 75,000 cells/well using the Bravo. Cells are then incubated for 2 hours at 37° C. and 5% CO2. The assay is then started by adding 10 μl of 5× (500 μM) substrate to the assay plate using either the Bravo or 16-channel Matrix multi-channel pipette. The cells are then incubated for 3 hours at 37° C. and 5% CO2. Next, 25 μl of 3× lysis buffer is added to each well using either the 125 μl 16 channel pipette or the Bravo. The assay plate is then incubated overnight (15-16 hours) at 37° C. and 5% CO2. The following day, the plates are shaken on an orbital shaker for 1 minute at 900 rpm. Finally the top read fluorescence (Excitation: 355 nm, Emission: 460 nm) is measured using PerkinElmer EnVision.
# human catalytic domain HDAC4 protein (amino acids 648-1032), sequence (P56524 648-1032): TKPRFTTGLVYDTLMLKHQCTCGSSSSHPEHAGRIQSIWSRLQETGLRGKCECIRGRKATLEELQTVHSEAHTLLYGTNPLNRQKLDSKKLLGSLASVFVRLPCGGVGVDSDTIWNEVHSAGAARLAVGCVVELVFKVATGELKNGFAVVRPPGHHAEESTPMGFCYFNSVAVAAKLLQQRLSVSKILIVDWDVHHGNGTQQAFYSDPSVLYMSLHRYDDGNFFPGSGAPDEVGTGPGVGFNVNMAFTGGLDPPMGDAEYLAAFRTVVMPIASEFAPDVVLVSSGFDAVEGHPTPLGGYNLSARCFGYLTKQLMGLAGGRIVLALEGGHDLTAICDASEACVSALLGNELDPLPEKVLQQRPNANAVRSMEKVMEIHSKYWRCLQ
IC50 [1],IC50 [2],Compound
110 nM,140 nM,"Cc1c(F)cccc1[C@]1(C(=O)NO)CC[C@@H](c2ccc3c(cnn3C)c2)C1 (relative stereo) [Example 63, (1S,3R*)-1-(3-fluoro-2-methylphenyl)-N-hydroxy-3-(1-methyl-1H-indazol-5-yl)cyclopentanecarboxamide]"
100 nM,220 nM,"Cc1c(F)cccc1[C@]1(C(=O)NO)CC[C@H](c2ccc3c(cnn3C)c2)C1 (relative stereo) [Example 64, (1S,3S*)-1-(3-fluoro-2-methylphenyl)-N-hydroxy-3-(1-methyl-1H-indazol-5-yl)cyclopentanecarboxamide]"
110 nM,99 nM,"Cc1c(F)cccc1[C@]1(C(=O)NO)CC[C@@H](c2ccc3cn(C(F)F)nc3c2)C1 (relative stereo) [Example 65, (1S,3R*)-3-(2-(difluoromethyl)-2H-indazol-6-yl)-1-(3-fluoro-2-methylphenyl)-N-hydroxycyclopentanecarboxamide]"
220 nM,190 nM,"Cc1c(F)cccc1[C@]1(C(=O)NO)CC[C@H](c2ccc3cn(C(F)F)nc3c2)C1 (relative stereo) [Example 66, (1S,3S*)-3-(2-(difluoromethyl)-2H-indazol-6-yl)-1-(3-fluoro-2-methylphenyl)-N-hydroxycyclopentanecarboxamide]"
400 nM,360 nM,"Cc1c(F)cccc1[C@]1(C(=O)NO)CC[C@@H](c2ccc3c(F)nn(C)c3c2)C1 (relative stereo) [Example 67, (1S,3R*)-3-(3-fluoro-1-methyl-1H-indazol-6-yl)-1-(3-fluoro-2-methylphenyl)-N-hydroxycyclopentanecarboxamide]"
320 nM,210 nM,"Cc1c(F)cccc1[C@]1(C(=O)NO)CC[C@H](c2ccc3c(F)nn(C)c3c2)C1 (relative stereo) [Example 68, (1S,3S*)-3-(3-fluoro-1-methyl-1H-indazol-6-yl)-1-(3-fluoro-2-methylphenyl)-N-hydroxycyclopentanecarboxamide]"
90 nM,200 nM,"Cc1c(F)cccc1[C@]1(C(=O)NO)CC[C@@H](c2ccc3c(c2)ncn3C)C1 (relative stereo) [Example 69, (1S,3R*)-1-(3-fluoro-2-methylphenyl)-N-hydroxy-3-(1-methyl-1H-benzo[d]imidazol-5-yl)cyclopentanecarboxamide]"
110 nM,130 nM,"Cc1c(F)cccc1[C@]1(C(=O)NO)CC[C@@H](c2ccc3ncn(C)c3c2)C1 (relative stereo) [Example 70, (1S,3R*)-1-(3-Fluoro-2-methylphenyl)-N-hydroxy-3-(1-methyl-1H-benzo[d]imidazol-6-yl)cyclopentanecarboxamide]"
59 nM,110 nM,"Cc1c(F)cccc1[C@]1(C(=O)NO)CC[C@H](c2ccc3ncn(C)c3c2)C1 (relative stereo) [Example 71, (1S,3S*)-1-(3-Fluoro-2-methylphenyl)-N-hydroxy-3-(1-methyl-1H-benzo[d]imidazol-6-yl)cyclopentanecarboxamide]"
300 nM,470 nM,Cc1c(F)cccc1[C@]1(C(=O)NO)CC[C@@H](c2ccc3c(c2)NCC(C)(C)O3)C1 (relative stereo) [Example 72]
270 nM,410 nM,Cc1c(F)cccc1[C@]1(C(=O)NO)CC[C@H](c2ccc3c(c2)NCC(C)(C)O3)C1 (relative stereo) [Example 73]
74 nM,110 nM,"Cc1c(F)cccc1[C@]1(C(=O)NO)CC[C@@H](c2ccc3nc(C(F)(F)F)[nH]c3c2)C1 (relative stereo) [Example 74, (1S,3R*)-1-(3-Fluoro-2-methylphenyl)-N-hydroxy-3-(2-(trifluoromethyl)-1H-benzo[d]imidazol-6-yl)cyclopentanecarboxamide]"
80 nM,160 nM,"Cc1c(F)cccc1[C@]1(C(=O)NO)CC[C@H](c2nc3ccccc3s2)C1 (relative stereo) [Example 75, (1S,3S*)-3-(Benzo[d]thiazol-2-yl)-1-(3-fluoro-2-methylphenyl)-N-hydroxycyclopentanecarboxamide]"
160 nM,240 nM,"Cc1c(F)cccc1[C@]1(C(=O)NO)CC[C@@H](c2nc3ccccc3s2)C1 (relative stereo) [Example 76, (1S,3R*)-3-(Benzo[d]thiazol-2-yl)-1-(3-fluoro-2-methylphenyl)-N-hydroxycyclopentanecarboxamide]"
310 nM,420 nM,"Cc1c(F)cccc1[C@]1(C(=O)NO)CC[C@H](c2ccc3nc(C4CC4)sc3c2)C1 (relative stereo) [Example 77, (1 S,3S*)-3-(2-cyclopropylbenzo[d]thiazol-6-yl)-1-(3-fluoro-2-methylphenyl)-N-hydroxycyclopentanecarboxamide]"
340 nM,420 nM,"Cc1c(F)cccc1[C@]1(C(=O)NO)CC[C@@H](c2ccc3nc(C4CC4)sc3c2)C1 (relative stereo) [Example 78, (1 S,3R*)-3-(2-cyclopropylbenzo[d]thiazol-6-yl)-1-(3-fluoro-2-methylphenyl)-N-hydroxycyclopentanecarboxamide]"
110 nM,250 nM,"Cc1c(F)cccc1[C@]1(C(=O)NO)CC[C@H](c2ccc3cnn(C)c3c2F)C1 (relative stereo) [Example 82, (1S,3S*)-3-(7-Fluoro-1-methyl-1H-indazol-6-yl)-1-(3-fluoro-2-methylphenyl)-N-hydroxycyclopentanecarboxamide]"
